For 22 molecules, IC50 results are on record in patent US9199983B2, “3-aryl-6-aryl-[1,2,4]triazolo[4,3-α]pyridines as inhibitors of cell proliferation and the use thereof” (priority 2010, dated 2015).

Usually pIC50 stands for the negative decadic logarithm of the IC50, by convention in mol/L.

Test [1] relates to Human lung cancer cell line A549. Briefly: MTT cancer cell cytotoxicity assay, A549. Format: cell-based. To be noted: Homo sapiens, A549 cells, 48-72 h. The procedure:
(§1) Identification of 3-(2-methoxyphenyl)-6-(4-methoxyphenyl)-[1,2,4]triazolo[4,3-a]pyridine and analogs as inhibitors of cell proliferation that were evaluated with standard MTT cancer cell cytotoxicity assay (IC50)
(§2) Human lung cancer cell line A549, breast cancer cell line T47D, liver cancer cell lines HepG2 and SMMC7721 as well as a mouse melanoma cell line B16F10 were used in the study. The cells were cultured in corresponding growth media recommended by American Type Culture Collection (ATCC) with the supplementation of penicillin G (100 U/ml)/streptomycin (100 µg/ml), and 10% fetal bovine serum (Hangzhou Sijiqing Biological Engineering Materials, Co., Ltd. China) at 37° C. in a humidified atmosphere containing 5% CO2. Cells at about 80% confluency were harvested by trypsinization. Cells were centrifuged, re-suspended in fresh growth media and counted. Corresponding numbers of cells were seeded to 96-well cell culture plates (HepG2 cell, T-47D and A549 cells at 3000 cells/well, SMMC-7721 cells at 5000 cells/well and B16F10 cells at 2000 cells/well) in a total volume of […]. Cells were incubated in CO2 incubator over night to allow the cells to attach. In next day, […] of medium containing testing (from 10 μM to 1 nM) or reference compounds was added to each well of the cells. Media without compound were used as 100% control. Cells were treated with each concentration of compounds in triplicates to ensure data accuracy. Cells were incubated with compounds in CO2 incubator for an additional 48-72 h at 37° C. After incubation, cells were removed from the CO2 incubator and […] of 5 mg/ml MTT (3-(4,5-dimethylthiazole-2-yl)-2,5-diphenyltetrazoliumbromide, Sigma) solution in PBS was added to each well. Cells were returned to CO2 incubator and incubated for additional 4 h. After the incubation, media were removed by aspiration and […] DMSO was added to each well. Plates were sealed with aluminum foil and shaked mildly on an orbital shaker for 10 min at room temperature. The absorption was measured at 550 nm with a plate reader (Varioskan Flash, Thermo Fisher Scientific) with 660 nm reading used as background control. The relative absorbance readings were calculated by subtracting readings at 660 nm from that at 550 nm. The relative absorbance was plotted again the concentrations of the testing compounds and the plots were fitted with a one-site lg(IC50) equation using Prism 5 software (GraphPad Software, Inc). The equation used in the curve fitting is as follows: relative absorbance reading=background reading+(maximal reading−brackground reading)/(1+10 ^(compound concentration-log IC50)). The background reading used in the calculation was obtained with 100% cell death using a reference anticancer drug, whereas the maximal reading was obtained in the well with no added compound. The IC50 value calculated from the equation represents the cytotoxic potency of a particular compound.

In test [2] the test system is liver cancer cell line HepG2. The experiment in a line: MTT cancer cell cytotoxicity assay, HepG2. Format: cell-based, human. To be noted: Homo sapiens, HepG2 cells, 48-72 h. The protocol: as §1, §2
In test [3] the test system is liver cancer cell line SMMC7721. Briefly: MTT cancer cell cytotoxicity assay, SMMC7721. The test is classed as cell-based, human. To be noted: Homo sapiens, SMMC-7721, SMMC7721 cells, 48-72 h. The protocol:
as §1, §2

Test [4] concerns breast cancer cell line T47D. The experiment in a line: MTT cancer cell cytotoxicity assay, T47D. Format: cell-based, human. The conditions noted are these: Homo sapiens, T47D cells, 48-72 h. The procedure:
as §1, §2

pIC50: −log10 of the molar value.

Regarding `COc1ccccc1-c1nnc2ccc(-c3ccc(C)cc3F)cn12` [Example 4, 6-(2-Fluoro-4-methylphenyl)-3-(2-methoxyphenyl)-[1,2,4]triazolo[4,3-a]pyridine], the pIC50 in test [1] was 6.56; in test [2], 6.61; in test [3] it was 7.10; in test [4], 6.49.

Take `COc1ccc(-c2ccc3nnc(-c4ccccc4OC)n3c2)c(C)c1` [Example 8, 6-(4-Methoxy-2-methylphenyl)-3-(2-methoxyphenyl)-[1,2,4]triazolo[4,3-a]pyridine]: the pIC50 in test [1] is 7.04; in test [2], 7.26; in test [3], 7.62; in test [4], 6.99.

As to `COc1cc(-c2ccc3nnc(-c4ccccc4OC)n3c2)ccc1OCc1ccccc1` [Example 9, 6-(4-Benzyloxy-3-methoxyphenyl)-3-(2-methoxyphenyl)-[1,2,4]triazolo[4,3-a]pyridine], the pIC50 in test [1], in test [2], in test [3] and in test [4] was under 5.00 each time.

Consider `COc1ccccc1-c1nnc2ccc(-c3ccc(C)c([N+](=O)[O-])c3)cn12` [Example 10, 3-(2-Methoxyphenyl)-6-(4-methyl-3-nitrophenyl)-[1,2,4]triazolo[4,3-a]pyridine], for which the pIC50 was under 5.00 in test [1], 6.42 in test [2], 6.21 in test [3] and 5.86 in test [4].

On to `COc1ccccc1-c1nnc2ccc(-c3cccc(O)c3)cn12` [Example 12, 6-(3-Hydroxyphenyl)-3-(2-methoxyphenyl)-[1,2,4]triazolo[4,3-a]pyridine], for which the negative-log IC50 (pIC50) in test [1] is 5.14; in test [2] it was 5.53; in test [3], under 5.00; in test [4], under 5.00.

As for `COc1ccccc1-c1nnc2ccc(-c3ccc(O)cc3)cn12` [Example 13, 6-(4-Hydroxyphenyl)-3-(2-methoxyphenyl)-[1,2,4]triazolo[4,3-a]pyridine], the negative logarithm of the IC50 (pIC50) in test [1] was 5.63; in test [2], 5.89; in test [3] it was 6.00; in test [4], 6.18.

As for `COc1ccccc1-c1nnc2ccc(-c3ccc4c(c3)OCO4)cn12` [Example 14, 6-(Benzo[d][1,3]dioxol-5-yl)-3-(2-methoxyphenyl)-[1,2,4]triazolo[4,3-a]pyridine], the pIC50 is 5.90 in test [1], 6.10 in test [2], 6.96 in test [3] and 5.84 in test [4].

For the molecule `COc1ccc(-c2ccc3nnc(-c4ccccc4OC)n3c2)cn1` [Example 15, 3-(2-Methoxyphenyl)-6-(6-methoxypyridin-3-yl)-[1,2,4]triazolo[4,3-a]pyridine], the negative-log IC50 (pIC50) in test [1] was 5.99; in test [2], 5.76; in test [3] it was 5.96; in test [4] it was 5.70.

With `CCOc1ccc(-c2ccc3nnc(-c4ccccc4OC)n3c2)cc1C` [Example 16, 6-(4-Ethoxy-3-methylphenyl)-3-(2-methoxyphenyl)-[1,2,4]triazolo[4,3-a]pyridine], the pIC50 in test [1] is 6.80; in test [2], 6.97; in test [3] it was 7.48; in test [4] it was 6.82.

Consider `COc1ncc(-c2ccc3nnc(-c4ccccc4OC)n3c2)cn1` [Example 18, 3-(2-Methoxyphenyl)-6-(2-methoxypyrimidin-5-yl)-[1,2,4]triazolo[4,3-a]pyridine], for which the negative-log IC50 (pIC50) in test [1], in test [2], in test [3] and in test [4] was under 5.00 each time.

For `COc1ccccc1-c1nnc2ccc(-c3ccc(C)c(Cl)c3)cn12` [Example 19, 6-(3-Chloro-4-methylphenyl)-3-(2-methoxyphenyl)-[1,2,4]triazolo[4,3-a]pyridine], the pIC50 is 6.66 in test [1], 6.80 in test [2], 7.17 in test [3] and 6.77 in test [4].

Regarding `COc1ccccc1-c1nnc2ccc(-c3ccc([N+](=O)[O-])c(OC)c3)cn12` [Example 21, 6-(3-Methoxy-4-nitrophenyl)-3-(2-methoxyphenyl)-[1,2,4]triazolo[4,3-a]pyridine], the pIC50 in test [1] is under 5.00; in test [2], 5.37; in test [3], under 5.00; in test [4], under 5.00.

In the case of `COc1ccccc1-c1nnc2ccc(-c3ccc(C)cc3)cn12` [Example 22, 3-(2-Methoxyphenyl)-6-(4-methylphenyl)-[1,2,4]triazolo[4,3-a]pyridine], the pIC50 in test [1] is 6.72; in test [2] it was 6.65; in test [3], 7.29; in test [4] it was 6.83.

Consider `COc1ccccc1-c1nnc2ccc(-c3cccc(C)c3)cn12` [Example 23, 3-(2-Methoxyphenyl)-6-(3-methylphenyl)-[1,2,4]triazolo[4,3-a]pyridine], for which the pIC50 in test [1] was 6.67; in test [2] it was 6.74; in test [3], 7.12; in test [4], 6.87.

For the molecule `COc1ccccc1-c1nnc2ccc(-c3ccc(C)cc3C)cn12` [Example 25, 6-(2,4-Dimethylphenyl)-3-(2-methoxyphenyl)-[1,2,4]triazolo[4,3-a]pyridine], the pIC50 in test [1] is 6.14; in test [2], 6.14; in test [3] it was 6.94; in test [4] it was 6.38.

With `COc1cc(-c2ccc3nnc(-c4ccccc4OC)n3c2)ccc1C` [Example 28, 6-(3-Methoxy-4-methylphenyl)-3-(2-methoxyphenyl)-[1,2,4]triazolo[4,3-a]pyridine], the negative logarithm of the IC50 (pIC50) in test [1] is 6.05; in test [2], 6.35; in test [3] it was 6.75; in test [4], 6.31.

Consider `COc1ccccc1-c1nnc2ccc(-c3cc(OC)c(OC)c(OC)c3)cn12` [Example 29, 3-(2-Methoxyphenyl)-6-(3,4,5-trimethoxyphenyl)-[1,2,4]triazolo[4,3-a]pyridine], for which the negative-log IC50 (pIC50) in test [1], in test [2], in test [3] and in test [4] was under 5.00 in each case.

In the case of `COc1ccccc1-c1nnc2ccc(-c3cc(C)c(OC)c(C)c3)cn12` [Example 30, 6-(3,5-Dimethyl-4-methoxyphenyl)-3-(2-methoxyphenyl)-[1,2,4]triazolo[4,3-a]pyridine], the pIC50 is under 5.00 in test [1], 5.63 in test [2], 5.76 in test [3] and 5.29 in test [4].

For `COc1ccc(-c2ccc3nnc(-c4ccccc4OC)n3c2)cc1OC` [Example 31, 6-(3,4-Dimethoxyphenyl)-3-(2-methoxyphenyl)-[1,2,4]triazolo[4,3-a]pyridine], the pIC50 in test [1] is 6.62; in test [2], 6.32; in test [3], 6.31; in test [4] it was 6.12.

For `COc1ccccc1-c1nnc2ccc(-c3ccc(C)c(C)c3)cn12` [Example 32, 6-(3,4-Dimethylphenyl)-3-(2-methoxyphenyl)-[1,2,4]triazolo[4,3-a]pyridine], the pIC50 is 6.80 in test [1], 7.08 in test [2], 7.41 in test [3] and 6.83 in test [4].

Regarding `COc1ccccc1-c1nnc2ccc(-c3ccc(C)c(F)c3)cn12` [Example 33, 6-(3-Fluoro-4-methylphenyl)-3-(2-methoxyphenyl)-[1,2,4]triazolo[4,3-a]pyridine], the pIC50 in test [1] is 6.20; in test [2], 6.11; in test [3], 6.79; in test [4], 6.09.

On to `COc1ccc(-c2ccc3nnc(-c4ccccc4OC)n3c2)c(OC)c1` [Example 36, 6-(2,4-Dimethoxyphenyl)-3-(2-methoxyphenyl)-[1,2,4]triazolo[4,3-a]pyridine], for which the negative logarithm of the IC50 (pIC50) is 7.13 in test [1], 7.11 in test [2], 7.54 in test [3] and 6.50 in test [4].
